# Reference: PMC8766756, “Insights on Cancer Cell Inhibition, Subcellular Activities, and Kinase Profile of Phenylacetamides Pending 1H-Imidazol-5-One Variants” (Frontiers in Pharmacology, 2022)
# Several values for one entry are separate records, joined by “and”; a condition that tells them apart may be missing. Identical values can stand only once.
# Key:
# Test in all cases: PamChip tyrosine kinase microarray
# Type in all cases: biochemical
# Conditions in all cases: 0.1 µM, HL60 lysate
# Etk/BMX (P51813) = biological target: T1, Etk/BMX (P51813) (Homo sapiens, UniProt P51813)
# T1 construct: purchased PamGene (PamChip PTK array, Upstream Kinase Analysis)
# T1 sequence (P51813 1-675): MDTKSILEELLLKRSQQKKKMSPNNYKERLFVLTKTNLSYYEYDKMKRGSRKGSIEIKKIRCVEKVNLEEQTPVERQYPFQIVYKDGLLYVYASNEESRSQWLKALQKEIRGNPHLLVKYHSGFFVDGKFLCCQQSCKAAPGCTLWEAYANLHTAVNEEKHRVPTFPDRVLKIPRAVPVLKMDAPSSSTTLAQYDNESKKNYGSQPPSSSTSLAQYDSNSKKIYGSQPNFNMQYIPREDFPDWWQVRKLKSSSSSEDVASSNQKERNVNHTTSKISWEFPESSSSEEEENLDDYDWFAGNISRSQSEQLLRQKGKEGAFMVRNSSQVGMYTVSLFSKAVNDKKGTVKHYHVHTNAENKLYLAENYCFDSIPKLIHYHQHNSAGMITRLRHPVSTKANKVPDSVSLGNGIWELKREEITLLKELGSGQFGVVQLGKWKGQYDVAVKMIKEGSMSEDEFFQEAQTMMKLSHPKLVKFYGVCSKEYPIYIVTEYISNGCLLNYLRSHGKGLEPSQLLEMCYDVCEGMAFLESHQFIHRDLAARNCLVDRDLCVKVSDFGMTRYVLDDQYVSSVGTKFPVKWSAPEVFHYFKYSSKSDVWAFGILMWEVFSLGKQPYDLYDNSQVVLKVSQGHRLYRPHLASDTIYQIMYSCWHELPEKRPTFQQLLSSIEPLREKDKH
# Procedure, shortened: (§1)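 HL60 (AML) cell lysate was spiked with compound at 0.001, 0.01, 0.1, 1, 10 and 50 µM, or 2% v/v DMSO as control, then profiled in technical replicates on a tyrosine kinase peptide array of 196 phosphosites. Kinase activity was inferred from peptide-set changes using an upstream kinase tool.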
# TRKA (P04629) = biological target: T2, TRKA (P04629) (Homo sapiens, UniProt P04629)
# T2 construct: purchased PamGene (PamChip PTK array, Upstream Kinase Analysis)
# Procedure, shortened: as §1
# FAK1 (Q05397) = biological target: T3, FAK1 (Q05397) (Homo sapiens, UniProt Q05397)
# T3 construct: purchased PamGene (PamChip PTK array, Upstream Kinase Analysis)
# Procedure, shortened: as §1
# TEC (P42680) = biological target: T4, TEC (P42680) (Homo sapiens, UniProt P42680)
# T4 construct: purchased PamGene (PamChip PTK array, Upstream Kinase Analysis)
# T4 sequence (P42680 1-631): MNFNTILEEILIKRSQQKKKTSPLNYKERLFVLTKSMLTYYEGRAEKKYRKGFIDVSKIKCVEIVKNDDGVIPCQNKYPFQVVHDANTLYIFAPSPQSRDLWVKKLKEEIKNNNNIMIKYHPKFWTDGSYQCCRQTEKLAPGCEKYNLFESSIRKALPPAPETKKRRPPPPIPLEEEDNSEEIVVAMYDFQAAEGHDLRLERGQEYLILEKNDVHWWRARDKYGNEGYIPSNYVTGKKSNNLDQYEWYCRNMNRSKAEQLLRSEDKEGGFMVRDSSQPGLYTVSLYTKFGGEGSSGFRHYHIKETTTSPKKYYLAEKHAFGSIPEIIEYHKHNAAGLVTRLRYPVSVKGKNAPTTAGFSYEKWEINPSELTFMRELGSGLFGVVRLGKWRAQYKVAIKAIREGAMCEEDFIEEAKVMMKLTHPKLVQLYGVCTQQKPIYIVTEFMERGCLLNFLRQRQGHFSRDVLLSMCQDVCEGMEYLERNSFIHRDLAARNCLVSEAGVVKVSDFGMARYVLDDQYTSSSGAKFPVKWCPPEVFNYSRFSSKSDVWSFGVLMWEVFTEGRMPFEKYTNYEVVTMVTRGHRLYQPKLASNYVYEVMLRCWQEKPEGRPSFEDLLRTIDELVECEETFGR
# Procedure, shortened: as §1
# Met (P08581) = biological target: T5, Met (P08581) (Homo sapiens, UniProt P08581)
# T5 construct: purchased PamGene (PamChip PTK array, Upstream Kinase Analysis)
# Procedure, shortened: as §1
# Fes (P07332) = biological target: T6, Fes (P07332) (Homo sapiens, UniProt P07332)
# T6 construct: purchased PamGene (PamChip PTK array, Upstream Kinase Analysis)
# Procedure, shortened: as §1
# T2 sequence (P04629 33-796): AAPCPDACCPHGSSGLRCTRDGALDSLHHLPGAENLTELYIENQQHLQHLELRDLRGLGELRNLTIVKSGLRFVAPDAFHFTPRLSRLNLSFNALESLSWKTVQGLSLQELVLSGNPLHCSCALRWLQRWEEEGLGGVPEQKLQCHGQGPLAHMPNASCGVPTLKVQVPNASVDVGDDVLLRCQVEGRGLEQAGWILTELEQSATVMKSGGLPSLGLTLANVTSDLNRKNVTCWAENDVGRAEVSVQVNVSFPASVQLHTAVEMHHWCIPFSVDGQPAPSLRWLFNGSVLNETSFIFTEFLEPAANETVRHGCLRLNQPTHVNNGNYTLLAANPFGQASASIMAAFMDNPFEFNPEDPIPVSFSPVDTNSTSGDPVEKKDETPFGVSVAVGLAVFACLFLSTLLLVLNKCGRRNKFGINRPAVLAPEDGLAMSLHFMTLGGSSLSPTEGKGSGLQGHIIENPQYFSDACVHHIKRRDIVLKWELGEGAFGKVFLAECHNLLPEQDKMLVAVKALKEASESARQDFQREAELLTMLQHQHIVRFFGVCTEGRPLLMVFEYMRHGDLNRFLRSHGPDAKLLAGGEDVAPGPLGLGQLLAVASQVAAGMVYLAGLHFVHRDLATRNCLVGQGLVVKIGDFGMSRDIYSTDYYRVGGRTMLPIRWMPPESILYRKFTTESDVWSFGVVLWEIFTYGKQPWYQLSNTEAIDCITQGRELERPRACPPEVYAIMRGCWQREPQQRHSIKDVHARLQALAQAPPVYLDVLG
# T3 sequence (Q05397 whole entry): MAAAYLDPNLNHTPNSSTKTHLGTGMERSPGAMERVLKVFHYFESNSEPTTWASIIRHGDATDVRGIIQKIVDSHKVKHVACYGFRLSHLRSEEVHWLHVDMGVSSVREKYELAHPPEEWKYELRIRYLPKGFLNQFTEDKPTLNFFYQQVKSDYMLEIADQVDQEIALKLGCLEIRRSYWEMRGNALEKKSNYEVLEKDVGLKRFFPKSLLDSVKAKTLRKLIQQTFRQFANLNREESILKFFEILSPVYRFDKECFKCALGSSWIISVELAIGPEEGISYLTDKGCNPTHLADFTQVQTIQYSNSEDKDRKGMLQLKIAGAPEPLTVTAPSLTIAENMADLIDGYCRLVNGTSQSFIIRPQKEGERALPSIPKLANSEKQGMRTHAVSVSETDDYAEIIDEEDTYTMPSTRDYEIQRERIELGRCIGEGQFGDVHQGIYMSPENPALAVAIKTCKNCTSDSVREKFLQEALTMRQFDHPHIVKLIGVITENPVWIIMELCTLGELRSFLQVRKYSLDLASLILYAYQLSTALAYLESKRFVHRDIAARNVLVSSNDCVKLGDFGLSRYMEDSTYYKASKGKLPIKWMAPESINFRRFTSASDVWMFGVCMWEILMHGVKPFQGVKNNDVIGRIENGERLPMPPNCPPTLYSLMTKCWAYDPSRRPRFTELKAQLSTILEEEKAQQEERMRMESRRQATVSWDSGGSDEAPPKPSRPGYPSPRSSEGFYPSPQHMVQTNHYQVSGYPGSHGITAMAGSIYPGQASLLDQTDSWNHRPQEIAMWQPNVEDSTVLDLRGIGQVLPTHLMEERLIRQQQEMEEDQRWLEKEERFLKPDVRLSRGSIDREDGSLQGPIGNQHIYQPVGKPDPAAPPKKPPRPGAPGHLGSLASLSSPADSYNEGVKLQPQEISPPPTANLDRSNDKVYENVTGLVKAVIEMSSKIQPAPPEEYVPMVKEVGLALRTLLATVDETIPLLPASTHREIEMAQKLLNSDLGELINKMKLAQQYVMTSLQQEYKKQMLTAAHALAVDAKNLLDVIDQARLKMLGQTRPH
# T6 sequence (P07332 whole entry): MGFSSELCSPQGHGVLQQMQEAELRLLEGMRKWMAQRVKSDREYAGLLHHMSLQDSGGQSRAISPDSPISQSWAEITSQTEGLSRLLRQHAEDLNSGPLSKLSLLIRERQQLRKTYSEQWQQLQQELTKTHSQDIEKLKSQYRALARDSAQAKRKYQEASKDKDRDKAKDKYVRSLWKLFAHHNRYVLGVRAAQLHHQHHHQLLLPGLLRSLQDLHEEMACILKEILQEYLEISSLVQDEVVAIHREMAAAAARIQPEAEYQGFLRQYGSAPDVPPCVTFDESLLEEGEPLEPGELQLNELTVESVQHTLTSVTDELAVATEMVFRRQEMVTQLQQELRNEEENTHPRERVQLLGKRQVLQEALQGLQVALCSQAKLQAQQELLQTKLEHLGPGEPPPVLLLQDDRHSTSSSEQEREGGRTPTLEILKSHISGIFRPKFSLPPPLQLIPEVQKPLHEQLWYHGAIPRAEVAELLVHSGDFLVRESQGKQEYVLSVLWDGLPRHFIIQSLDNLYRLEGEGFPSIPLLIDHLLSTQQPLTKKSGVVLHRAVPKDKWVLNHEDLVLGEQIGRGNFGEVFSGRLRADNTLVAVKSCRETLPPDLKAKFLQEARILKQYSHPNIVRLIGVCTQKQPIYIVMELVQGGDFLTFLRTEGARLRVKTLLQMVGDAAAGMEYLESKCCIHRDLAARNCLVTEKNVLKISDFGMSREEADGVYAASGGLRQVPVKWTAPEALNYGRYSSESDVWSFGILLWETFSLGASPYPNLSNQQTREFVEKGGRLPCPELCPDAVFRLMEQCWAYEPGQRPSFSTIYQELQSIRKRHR
# T5 sequence (P08581 25-1390): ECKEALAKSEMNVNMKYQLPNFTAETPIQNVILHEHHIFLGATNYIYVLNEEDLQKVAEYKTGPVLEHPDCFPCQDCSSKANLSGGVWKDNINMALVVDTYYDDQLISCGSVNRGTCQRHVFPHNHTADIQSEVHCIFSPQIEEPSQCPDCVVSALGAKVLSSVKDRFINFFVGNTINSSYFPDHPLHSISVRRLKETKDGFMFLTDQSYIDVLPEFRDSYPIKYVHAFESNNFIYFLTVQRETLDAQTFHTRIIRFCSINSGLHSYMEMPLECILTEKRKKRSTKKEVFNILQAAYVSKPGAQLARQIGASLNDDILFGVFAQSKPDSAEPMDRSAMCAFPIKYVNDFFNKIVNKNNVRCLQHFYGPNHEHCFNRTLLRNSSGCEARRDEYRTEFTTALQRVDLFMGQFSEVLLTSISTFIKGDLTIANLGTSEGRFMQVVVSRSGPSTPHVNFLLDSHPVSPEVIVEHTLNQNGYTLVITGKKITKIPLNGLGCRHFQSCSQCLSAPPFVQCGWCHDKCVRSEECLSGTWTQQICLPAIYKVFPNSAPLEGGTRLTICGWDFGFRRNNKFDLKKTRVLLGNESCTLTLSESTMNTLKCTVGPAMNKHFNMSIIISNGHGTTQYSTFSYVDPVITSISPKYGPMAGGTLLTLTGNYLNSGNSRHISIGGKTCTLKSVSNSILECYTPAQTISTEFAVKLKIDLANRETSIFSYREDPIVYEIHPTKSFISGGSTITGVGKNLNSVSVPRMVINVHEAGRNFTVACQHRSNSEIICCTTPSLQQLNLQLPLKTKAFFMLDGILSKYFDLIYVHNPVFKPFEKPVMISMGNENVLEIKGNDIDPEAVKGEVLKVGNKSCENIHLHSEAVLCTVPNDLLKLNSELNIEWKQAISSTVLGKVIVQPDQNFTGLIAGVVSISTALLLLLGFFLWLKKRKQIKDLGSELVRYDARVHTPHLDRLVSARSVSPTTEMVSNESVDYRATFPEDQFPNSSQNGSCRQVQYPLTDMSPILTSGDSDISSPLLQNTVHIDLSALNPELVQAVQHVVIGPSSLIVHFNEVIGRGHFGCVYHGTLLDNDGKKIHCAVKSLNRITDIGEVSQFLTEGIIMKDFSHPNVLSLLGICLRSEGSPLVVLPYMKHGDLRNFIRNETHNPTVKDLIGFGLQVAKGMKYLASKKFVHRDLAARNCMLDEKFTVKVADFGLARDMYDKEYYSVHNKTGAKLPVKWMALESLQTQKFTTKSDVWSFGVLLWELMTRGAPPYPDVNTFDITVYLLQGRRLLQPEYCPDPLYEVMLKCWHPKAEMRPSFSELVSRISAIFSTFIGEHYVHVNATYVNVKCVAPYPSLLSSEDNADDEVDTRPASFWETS
smiles,measurement,setting,value
"COc1ccc(/C=C2\N=C(C)N(c3ccc(CC(=O)NCc4ccccc4)cc3)C2=O)cc1 [Compound 4c, (Z)-N-Benzyl-2-(4-(4-(4-methoxybenzylidene)-2-methyl-5-oxo-4,5-dihydro-1H-imidazol-1-yl)phenyl)acetamide]",Mean Final score (Kinase score),Etk/BMX (P51813),2.196
same,Mean Kinase Statistic,Etk/BMX (P51813),-1.111
same,Mean Significance Score,Etk/BMX (P51813),2.048
same,Mean Specificity Score,Etk/BMX (P51813),0.1452
same,Mean Final score (Kinase score),TRKA (P04629),2.339
same,Mean Kinase Statistic,TRKA (P04629),-1.138
same,Mean Significance Score,TRKA (P04629),2.048
same,Mean Specificity Score,TRKA (P04629),0.2694
same,Mean Final score (Kinase score),FAK1 (Q05397),2.506
same,Mean Kinase Statistic,FAK1 (Q05397),-1.237
same,Mean Significance Score,FAK1 (Q05397),2.048
same,Mean Specificity Score,FAK1 (Q05397),0.5313
same,Mean Final score (Kinase score),TEC (P42680),2.197
same,Mean Kinase Statistic,TEC (P42680),-1.125
same,Mean Significance Score,TEC (P42680),2.048
same,Mean Specificity Score,TEC (P42680),0.171
same,Mean Final score (Kinase score),Met (P08581),2.5
same,Mean Kinase Statistic,Met (P08581),-1.184
same,Mean Significance Score,Met (P08581),2.048
same,Mean Specificity Score,Met (P08581),0.4367
same,Mean Significance Score,Fes (P07332),2.048
same,Mean Specificity Score,Fes (P07332),1.058
same,Mean Final score (Kinase score),Fes (P07332); listed as KIM-161,3.13 and 3.128
